Measured values taken from patent US20120190059A1, “METHODS FOR OBTAINING HEPATOCYTES, HEPATIC ENDODERM CELLS AND HEPATIC PROGENITOR CELLS BY INDUCED DIFFERENTIATION” (BEIJING HUAYU[…]., LTD., priority 2009, published 2012).

System: cytochrome p450
Test: PROD detection of cytochrome p450 activity in differentiated hepatocyte-like cells
Settings: phenobarbital induction versus no induction, hepatocyte-like cells differentiated from hepatic progenitor cells

CCC1(c2ccccc2)C(=O)NC(=O)NC1=O [Phenobarbital]
PROD activity of the differentiated cells: could improve the PROD activity | PROD activity of the differentiated cells (listed as phenobarbital): PROD activity was enhanced
